From PubChem BioAssay (NCI)
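How tested: cells in 96-well plates exposed to compound for 48 hours at five concentrations. GI50 = concentration required for 50% inhibition of growth. At the TGI there is no net growth.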

Key:
Experiment in all cases: DTP human tumour cell line panel, 48 h
HCC-2998 colon = tested on: HCC-2998 colon
SF-268 CNS = tested on: SF-268 CNS
A549 NSCLC = tested on: A549 NSCLC
UACC-257 melanoma = tested on: UACC-257 melanoma
SK-MEL-2 melanoma = tested on: SK-MEL-2 melanoma
OVCAR-8 ovarian = tested on: OVCAR-8 ovarian
SK-OV-3 ovarian = tested on: SK-OV-3 ovarian
SNB-19 CNS = tested on: SNB-19 CNS
RPMI-8226 leukemia = tested on: RPMI-8226 leukemia
COLO 205 colon = tested on: COLO 205 colon

COc1cc([N+](=O)[O-])c(S(=O)(=O)O)cc1-n1nc(-c2ccccc2)n[n+]1-c1cc(S(=O)(=O)[O-])c([N+](=O)[O-])cc1OC
TGI (HCC-2998 colon): > 100 µM | TGI (SF-268 CNS): > 100 µM | TGI (A549 NSCLC): > 100 µM | TGI (UACC-257 melanoma): > 100 µM | TGI (SK-MEL-2 melanoma): > 100 µM | TGI (OVCAR-8 ovarian): > 100 µM | TGI (SK-OV-3 ovarian): > 100 µM | TGI (SNB-19 CNS): > 100 µM | TGI (RPMI-8226 leukemia): > 100 µM | TGI (COLO 205 colon): > 100 µM

CCN(CCc1ccc(F)cc1)c1ccc(CO)c(Cl)c1
GI50 (HCC-2998 colon): 12.6 µM | TGI (HCC-2998 colon): 26.5 µM | GI50 (SF-268 CNS): 14.3 µM | TGI (SF-268 CNS): 28.6 µM | GI50 (A549 NSCLC): 9.36 µM | TGI (A549 NSCLC): 24.4 µM | GI50 (UACC-257 melanoma): 1.42 µM | TGI (UACC-257 melanoma): 4.87 µM | GI50 (SK-MEL-2 melanoma): 7.29 µM | TGI (SK-MEL-2 melanoma): 21.1 µM | GI50 (OVCAR-8 ovarian): 10.8 µM | TGI (OVCAR-8 ovarian): 27.4 µM | GI50 (SK-OV-3 ovarian): 12.4 µM | TGI (SK-OV-3 ovarian): 27.8 µM | GI50 (SNB-19 CNS): 13.2 µM | TGI (SNB-19 CNS): 26.6 µM | GI50 (RPMI-8226 leukemia): 4.69 µM | TGI (RPMI-8226 leukemia): 27.4 µM | GI50 (COLO 205 colon): 7.06 µM | TGI (COLO 205 colon): 21.5 µM

COc1cc2c(c(OC)c1OC)C(=O)c1c-2n(CCCN)c(=O)c2cc([N+](=O)[O-])ccc12
GI50 (HCC-2998 colon): 0.299 µM | TGI (HCC-2998 colon): 0.804 µM | GI50 (SF-268 CNS): 0.364 µM | TGI (SF-268 CNS): 1.95 µM | GI50 (UACC-257 melanoma): 5.18 µM | TGI (UACC-257 melanoma): 12.2 µM | GI50 (SK-MEL-2 melanoma): 5.45 µM | TGI (SK-MEL-2 melanoma): 11.6 µM | GI50 (SK-OV-3 ovarian): 1.95 µM | TGI (SK-OV-3 ovarian): 4 µM | GI50 (SNB-19 CNS): 1.5 µM | TGI (SNB-19 CNS): 5.15 µM | GI50 (RPMI-8226 leukemia): 1.21 µM | TGI (RPMI-8226 leukemia): 3.32 µM | GI50 (COLO 205 colon): 1.22 µM | TGI (COLO 205 colon): 6.3 µM

CO/N=C(\COc1ccc2c(=O)cc(-c3ccccc3)oc2c1)c1ccc(OC)cc1
GI50 (HCC-2998 colon): > 100 µM | TGI (HCC-2998 colon): > 100 µM | GI50 (A549 NSCLC): > 100 µM | TGI (A549 NSCLC): > 100 µM | GI50 (UACC-257 melanoma): > 100 µM | TGI (UACC-257 melanoma): > 100 µM | GI50 (SK-MEL-2 melanoma): > 100 µM | TGI (SK-MEL-2 melanoma): > 100 µM | GI50 (OVCAR-8 ovarian): > 100 µM | TGI (OVCAR-8 ovarian): > 100 µM | GI50 (SK-OV-3 ovarian): > 100 µM | TGI (SK-OV-3 ovarian): > 100 µM | GI50 (RPMI-8226 leukemia): 74 µM | TGI (RPMI-8226 leukemia): > 100 µM | GI50 (COLO 205 colon): > 100 µM | TGI (COLO 205 colon): > 100 µM

CN1NC(c2ccccc2)=C(C#N)C(=O)CC1c1ccccc1Cl (configuration not stated)
TGI (HCC-2998 colon): > 100 µM | TGI (SF-268 CNS): > 100 µM | TGI (A549 NSCLC): > 100 µM | TGI (UACC-257 melanoma): > 100 µM | TGI (SK-MEL-2 melanoma): > 100 µM | TGI (SK-OV-3 ovarian): > 100 µM | TGI (SNB-19 CNS): > 100 µM | TGI (RPMI-8226 leukemia): > 100 µM | TGI (COLO 205 colon): > 100 µM

CC(=O)OC1CC(C)c2c1ncnc2N1CCN(C(=O)OC(C)(C)C)CC1 (configuration not stated)
GI50 (HCC-2998 colon): 69.6 µM | TGI (HCC-2998 colon): > 100 µM | GI50 (SF-268 CNS): 67.2 µM | TGI (SF-268 CNS): > 100 µM | GI50 (A549 NSCLC): 44.2 µM | TGI (A549 NSCLC): > 100 µM | GI50 (SK-MEL-2 melanoma): 35.5 µM | TGI (SK-MEL-2 melanoma): 93.1 µM | GI50 (OVCAR-8 ovarian): 54.3 µM | TGI (OVCAR-8 ovarian): > 100 µM | GI50 (SK-OV-3 ovarian): 53.7 µM | TGI (SK-OV-3 ovarian): > 100 µM | GI50 (SNB-19 CNS): 78.5 µM | TGI (SNB-19 CNS): > 100 µM | GI50 (RPMI-8226 leukemia): 35.1 µM | TGI (RPMI-8226 leukemia): > 100 µM | GI50 (COLO 205 colon): 38.5 µM | TGI (COLO 205 colon): > 100 µM

COc1ccc(OC)c(-c2cn3nc(-c4c[nH]c5ccc(Br)cc45)sc3n2)c1
GI50 (HCC-2998 colon): 2.67 µM | TGI (HCC-2998 colon): 7.75 µM | GI50 (SF-268 CNS): 2.7 µM | TGI (SF-268 CNS): 7.6 µM | GI50 (A549 NSCLC): 2.31 µM | TGI (A549 NSCLC): 5.31 µM | GI50 (UACC-257 melanoma): 7.45 µM | TGI (UACC-257 melanoma): 30.7 µM | GI50 (SK-MEL-2 melanoma): 3.33 µM | TGI (SK-MEL-2 melanoma): 13.4 µM | GI50 (OVCAR-8 ovarian): 3.01 µM | TGI (OVCAR-8 ovarian): 9.3 µM | GI50 (SK-OV-3 ovarian): 9.01 µM | TGI (SK-OV-3 ovarian): 22.8 µM | GI50 (SNB-19 CNS): 4.51 µM | TGI (SNB-19 CNS): 18.6 µM | GI50 (RPMI-8226 leukemia): 3.19 µM | TGI (RPMI-8226 leukemia): 20.4 µM
